The values below come from US20130191098A1, “METHODS AND SYSTEMS FOR SIMULATIONS OF COMPLEX BIOLOGICAL NETWORKS USING GENE EXPRESSION INDEXING IN COMPUTATIONAL MODELS” (BOARD OF REGENTS OF THE UNIVERSITY OF TEXAS SYSTEM, priority 2010, published 2013).

Where two headings read alike, the source gives them in different places.

One assay relates to liver cell. On the set-up: unit not given here. As to conditions: cited from earlier work.
In a further assay the test system is skeletal muscle. In words: Human clinical trial with statins: skeletal muscle cholesterol and ubiquinone (Paiva et al.). It counts as in vivo.

Regarding `CC(C)c1c(C(=O)Nc2ccccc2)c(-c2ccccc2)c(-c2ccc(F)cc2)n1CC[C@@H](O)C[C@@H](O)CC(=O)O` [atorvastatin], the Cholesterol with liver cell (DOSE 0.01) was 15.52; with liver cell (DOSE 3), 14.27; with liver cell (DOSE 10) it was 13.71; in the assay on liver cell (DOSE 20), 13.66.
Take `CCC(C)(C)C(=O)O[C@H]1C[C@@H](C)C=C2C=C[C@H](C)[C@H](CC[C@@H]3C[C@@H](O)CC(=O)O3)[C@H]21` [simvastatin]: the “Ubiquinone, Percent from placebo” value in the assay on skeletal muscle (drop) is given as 134% drop. In the assay on skeletal muscle (rise), the “Cholesterol, Percent from placebo” value is 139% rise.
